# Laboratory results reported in article PMC9387325, “New quinoline and isatin derivatives as apoptotic VEGFR-2 inhibitors: design, synthesis, anti-proliferative activity, docking, ADMET, toxicity, and MD simulation studies” (Journal of Enzyme Inhibition and Medicinal Chemistry, 2022).
# Assays:
# [1] = Cytotoxicity against normal cells (safety assay); format: cell-based; settings: African green monkey, Vero cells (non-cancerous cell line)
# Protocol: The cytotoxic activities of the synthesised against normal cells were evaluated against the Vero cell line utilising an MTT assay.
# The safety profiles were examined on Vero cells (non-cancerous cell line) and was explained intensely in Supplementary data[48]. […]
# a- Mammalian cell lines culture […]
# (§1) RBMI media. The cultured media were supplement ed with 200 mM L-glutamine, 10.0% fetal bovine serum (Lonza), and 1.0% penicillin/streptomycin. Cells were seeded into 25.0 cm tissue culture flasks and incubated at 37 ◦C in a 5.0% CO2 incubator for 24 h or till confluency.
# (§2) The safety profiles of the tested compounds were checked on one non-cancerous cell line (Vero) to […]
# of 100.0 µl of 6×10^4 cell/ml cells was seeded in to each well of a 96-well plate and then the plates were incubated at 37 °C in a humidified 5.0% CO2 incubator for 24 h. At the end of incubation period, the exhausted medium was replaced with 100.0 µl of different concentrations of the designated treatment (prepared in RPMI medium starting from 1.0 mM). The inoculated plates were incubated at the same growth conditions for another 24 h. At the end of incubation, cellular viability was assessed using MTS assay kit (Promega) according to the manual instruction. […]
# [2] = In vitro anti-proliferative activity (MTT assay); format: cell-based, human; settings: African green monkey (Vero) / human (Caco-2); IC50 on normal (Vero) cells / IC50 on Caco-2; read-out: Selectivity index Caco-2
# Protocol: (§3) To assess the antiproliferative effects of the targeted candidates, an MTT assay[29–31] was performed against four cancer cell lines: lung carcinoma epithelial (A549), colon cancer (Caco-2), hepatocellular cancer (HepG2), and breast cancer (MDA-MB-231).
# (§4) Anti-proliferative activities were assessed using the MTT assay[31]^,[46] and were explained intensely in Supplementary data. […]
# (§5) a- Mammalian cell lines culture
# (§6) Lung carcinoma epithelial (A549), colon cancer (Caco-2)cell lines were cultured on DMEM media, meanwhile hepatocellular cancer (HepG2), and breast cancer (MDA-MB-231) cell lines were cultured on RBMI media. The cultured media were supplement ed with 200 mM L-glutamine, 10.0% fetal bovine serum (Lonza), and 1.0% penicillin/streptomycin. Cells were seeded into 25.0 cm tissue culture flasks and incubated at 37 ◦C in a 5.0% CO2 incubator for 24 h or till confluency.
# as §2
# (§7) of 100.0 µl of 6×10^4 cell/ml cells was seeded in to each well of a 96-well plate and then the plates were incubated at 37 °C in a humidified 5.0% CO2 incubator for 24 h. At the end of incubation period, the exhausted medium was replaced with 100.0 µl of different concentrations of the designated treatment (prepared in RPMI medium starting from 1.0 mM). The inoculated plates were incubated at the same growth conditions for another 24 h. At the end of incubation, cellular viability was assessed using MTS assay kit (Promega) according to the manual instruction. c- In-vitro anticancer activity
# (§8) Anticancer activities of the tested compounds against lung carcinoma epithelial (A549), colon cancer (Caco-2), hepatocellular cancer (HepG2), and breast cancer (MDA-MB-231) cell lines were quantified using MTS assay kit (Promega) as described by the Manufacturer. d- Selectivity index (SI)
# (§9) The selectivity index values of the tested compounds on cancer cells were calculated as described by Koch et al., with slight modifications; SI=IC50nc/IC50cc, where IC50nc: the IC50 value of the tested compound on normal cells and IC 50cc: IC50 of the tested compound on cancer cell line . […]
# Caco-2 = test: In vitro anti-proliferative activity (MTT assay); format: cell-based, human; settings: for IC50: Homo sapiens, Caco-2, mean of three replicates
# Protocol: as §3, §4, §5, §6, §2, §7, §8, §9
# MDA-MB-231 = test: In vitro anti-proliferative activity (MTT assay); format: cell-based, human; settings: for IC50: Homo sapiens, MDA-MB-231, MDA-MB231, mean of three replicates; for Selectivity index MDA-MB231: IC50 on normal (Vero) cells / IC50 on MDA-MB231
# Protocol: as §4, §5
# (§10) Lung carcinoma epithelial (A549), colon cancer (Caco-2)cell lines were cultured on DMEM media, […]
# as §1, §2, §7
# (§11) Anticancer activities of the tested compounds against lung carcinoma epithelial (A549), colon cancer […]
# (§12) quantified using MTS assay kit (Promega) as described by the Manufacturer. d- Selectivity index (SI)
# as §9
# A549 = test: In vitro anti-proliferative activity (MTT assay); format: cell-based, human; settings: for IC50: Homo sapiens, A549, mean of three replicates; for Selectivity index A549: IC50 on normal (Vero) cells / IC50 on A549
# Protocol: as §4, §5, §10, §1, §2, §7, §11, §12, §9
# HepG2 = test: In vitro anti-proliferative activity (MTT assay); format: cell-based, human; settings: for IC50: Homo sapiens, HepG2, HepG-2, mean of three replicates; for Selectivity index HepG2: IC50 on normal (Vero) cells / IC50 on HepG2
# Protocol: as §4, §5, §10, §1, §2, §7, §11, §12, §9
# VEGFR-2 = molecular target: T1, VEGFR-2 (Homo sapiens, UniProt P35968); test: In vitro VEGFR-2 kinase assay (VEGFR-2 ELISA kit); format: biochemical; settings: for HillSlope (best-fit value), VEGFR-2 inhibition / LogIC50 (best-fit value), VEGFR-2 inhibition: dose-response fit, supplement; for IC50: mean of three replicates, read-out: VEGFR-2 inhibitory activity IC50
# T1 construct: purchased
# Protocol: As the main target in this work is the design and synthesis of promising VEGFR-2 inhibitors, we subjected the synthesised compounds to in vitro VEGFR-2 inhibitory assay to assess the ability of these compounds to obstacle the kinase activity of VEGFR-2.
# Was tested using a VEGFR-2 ELISA kit and was explained intensely in Supplementary data[47].
# Bcl-xl = test: RT-qPCR gene expression in Caco-2 cells; format: cell-based, human; settings: Caco-2, 90 µM, 24 h
# Protocol: (§13) RT-qPCR technique was applied to assess the expression levels of Bcl2, Bcl-xl, Survivin, and TGF in Caco-2 cells after treatment with compound 7 for 24 h. […] On the other hand, such a compound produced an upregulation effect of the TGF gene.
# (§14) Bcl2, Bcl-xl, TGF and Survivin genes levels were evaluated as reported[51] and was explained intensely in Supplementary data. […]
# (§15) f- Gene expression pattern alternation of cancer cell after treatment with compound 7.
# (§16) The molecular anticancer mode of action of 7 was investigated by screening their ability to affect the gene expression levels of Bcl2, Bcl-xl, TGF and Survivin genes using specific forward and reverse primers and RTq-PCR technique (Table 1) in CaCo-2 cells (chosen as the most sensitive cancer cell line). After cellular treatment, CaCo-2 cell line was cultured into 12 well plates (6×10^3 cell/ml) for 24 h. with the sub -IC50 concentration of 7. After treatment, total RNA extraction was performed using RNA extraction kit (Qiagen, Germany). Then, 1 ug of the obtained RNA was used to synthesiz cDNA using cDNA synthesis kit (Promega Corp., Madison, WI) as recommended by the manufacturer . Simultaneously, GAPDH forward and reverse primers (Table 1) were used to amplify the house keeping gene as internal control for standardization of PCR products. The RTq -PCR was done using SYBR Green dye (QuantiTect SYBR Green PCR Kits) and Light Cycler fluorimeter (Bio-RAD S1000 Tm thermal cycler). The PCR cycling program was as follows: 95 °C for 2 min, followed by 40 cycles of 95 °C for 30s, 55 °C for 30 s, and 60 °C for 45s, and finally 60 °C for 5 min. […]
# TGF = test: RT-qPCR gene expression in Caco-2 cells; format: cell-based, human; settings: Caco-2, 90 µM, 24 h
# Protocol: as §13, §14, §15, §16
# Bcl2 = test: RT-qPCR gene expression in Caco-2 cells; format: cell-based, human; settings: Caco-2, 90 µM, 24 h
# Protocol: as §13, §14, §15, §16
# Survivin = test: RT-qPCR gene expression in Caco-2 cells; format: cell-based, human; settings: Caco-2, 90 µM, 24 h
# Protocol: as §13, §14, §15, §16
# Caco-2 cells [3] = test: Wound healing assay (migration assay); format: cell-based, human
# Protocol: In this test, Caco-2 cells were allowed to grow then, a wound was formed on the cell layer. Next, the cells were incubated with the sub IC50 dose of compound 7. The results of wound healing were compared to the untreated cell line. Figure 4 illustrates the degree of wound healing caused by compound 7 compared to the control cells.
# Was performed as the described protocol[50] and was explained intensely in Supplementary data. […]
# as §5
# Lung carcinoma epithelial (A549), colon cancer (Caco-2)cell lines were cultured on DMEM media, meanwhile hepatocellular cancer (HepG2), and breast cancer (MDA-MB-231) cell lines were cultured on RBMI media. […]
# of 100.0 µl of 6×10^4 cell/ml cells was seeded in to each well of a 96-well plate and then the plates were incubated at 37 °C in a humidified 5.0% CO2 incubator for 24 h. […] At the end of incubation, cellular viability was assessed using MTS assay kit (Promega) according to the manual instruction. c- In-vitro anticancer activity
# Anticancer activities of the tested compounds against lung carcinoma epithelial (A549), colon cancer (Caco-2), hepatocellular cancer (HepG2), and breast cancer (MDA-MB-231) cell lines were quantified using MTS assay kit (Promega) as described by the Manufacturer. d- Selectivity index (SI) […]
# Caco-2 cells [4] = test: Flow cytometric cell cycle analysis; format: cell-based, human; settings: Caco-2, 90 µM, 24 h
# Text: Employing the flowcytometry technique, the cell cycle pattern of the untrated Caco-2 cancer cells (Figure 6(A)) was compared with that of the treated cells with compound 7.
# T1 sequence (P35968 20-1356): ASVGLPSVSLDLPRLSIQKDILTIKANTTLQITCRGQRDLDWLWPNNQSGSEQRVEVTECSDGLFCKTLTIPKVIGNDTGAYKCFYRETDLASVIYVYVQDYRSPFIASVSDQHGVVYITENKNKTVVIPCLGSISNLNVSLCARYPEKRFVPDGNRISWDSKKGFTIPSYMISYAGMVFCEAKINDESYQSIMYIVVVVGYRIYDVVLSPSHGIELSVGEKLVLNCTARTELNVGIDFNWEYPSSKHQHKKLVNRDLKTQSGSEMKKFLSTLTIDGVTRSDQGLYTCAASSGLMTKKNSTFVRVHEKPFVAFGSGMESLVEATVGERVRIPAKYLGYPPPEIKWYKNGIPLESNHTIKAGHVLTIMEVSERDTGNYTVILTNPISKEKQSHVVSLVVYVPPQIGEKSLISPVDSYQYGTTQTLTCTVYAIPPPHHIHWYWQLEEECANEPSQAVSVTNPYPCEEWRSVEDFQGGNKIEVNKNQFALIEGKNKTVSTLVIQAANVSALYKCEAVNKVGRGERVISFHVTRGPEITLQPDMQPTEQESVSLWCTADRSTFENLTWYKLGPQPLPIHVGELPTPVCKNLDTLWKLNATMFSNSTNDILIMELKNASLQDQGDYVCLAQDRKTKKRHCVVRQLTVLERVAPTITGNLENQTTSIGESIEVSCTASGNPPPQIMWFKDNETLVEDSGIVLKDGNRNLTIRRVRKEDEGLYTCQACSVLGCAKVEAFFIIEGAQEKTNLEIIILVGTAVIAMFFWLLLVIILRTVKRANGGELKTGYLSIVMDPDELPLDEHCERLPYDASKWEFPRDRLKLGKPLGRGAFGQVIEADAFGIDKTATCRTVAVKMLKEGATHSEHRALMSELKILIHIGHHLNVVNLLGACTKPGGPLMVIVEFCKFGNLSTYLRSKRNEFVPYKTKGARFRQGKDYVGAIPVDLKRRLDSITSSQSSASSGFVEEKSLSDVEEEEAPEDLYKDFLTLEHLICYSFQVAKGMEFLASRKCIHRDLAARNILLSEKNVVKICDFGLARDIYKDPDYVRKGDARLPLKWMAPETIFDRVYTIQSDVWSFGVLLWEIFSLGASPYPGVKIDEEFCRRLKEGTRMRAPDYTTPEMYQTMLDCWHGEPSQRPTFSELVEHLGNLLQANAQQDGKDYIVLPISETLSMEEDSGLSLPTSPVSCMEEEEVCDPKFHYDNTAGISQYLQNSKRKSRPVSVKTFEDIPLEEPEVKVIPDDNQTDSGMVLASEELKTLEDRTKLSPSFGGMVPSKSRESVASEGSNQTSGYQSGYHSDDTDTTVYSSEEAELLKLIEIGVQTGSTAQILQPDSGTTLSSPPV
SMILES,IC50 at 24 h [1] [µM],selectivity ratio [2],IC50 (Caco-2) [µM],IC50 (MDA-MB-231) [µM],Selectivity index MDA-MB231 (MDA-MB-231),IC50 (A549) [µM],Selectivity index A549 (A549),IC50 (HepG2) [µM],Selectivity index HepG2 (HepG2),"HillSlope (best-fit value), VEGFR-2 inhibition (VEGFR-2)","LogIC50 (best-fit value), VEGFR-2 inhibition (VEGFR-2)",IC50 (VEGFR-2) [µM],also measured
"COc1cccc2c1C(=O)c1c(O)c3c(c(O)c1C2=O)C[C@@](O)(C(=O)CO)C[C@@H]3O[C@H]1C[C@H](N)[C@H](O)[C@H](C)O1 [Doxorubicin, reference compound]",25 ± 1.41,3.05,8.2 ± 0.21,9 ± 0.77,2.78,7 ± 0.22,3.57,2.8 ± 0.07,8.93,,,,
"COc1ccc(NC(=O)CN2C(=O)S/C(=C\c3cc4cc(OC)ccc4[nH]c3=O)C2=O)cc1 [Compound 8, (Z)-2–(5-((6-Methoxy-2-oxo-1,2-dihydroquinolin-3-yl)methylene)-2,4-dioxothiazolidin-3-yl)-N-(4-methoxyphenyl)acetamide]",150 ± 14.1,0.79,190 ± 9.11,130 ± 5.6,1.15,196 ± 70,0.77,134 ± 1.41,1.12,-0.3463,2.272 Log (nM),0.187,
"COc1ccc2[nH]c(=O)c(/C=C3\SC(=O)N(CC(=O)Nc4ccccc4C)C3=O)cc2c1 [Compound 9, (Z)-2–(5-((6-Methoxy-2-oxo-1,2-dihydroquinolin-3-yl)methylene)-2,4-dioxothiazolidin-3-yl)-N-(o-tolyl)acetamide]",196 ± 2.8,1.17,167 ± 4.2,188 ± 7.01,1.04,51 ± 4.2,3.84,145 ± 3.5,1.35,-0.5262,1.994 Log (nM),0.0985,times as active as sorafenib (VEGFR-2; VEGFR-2 inhibition): 0.54 times
COc1ccc(NC(=O)CN2C(=O)S/C(=C3\C(=O)Nc4ccccc43)C2=O)cc1 [Compound 14],30 ± 1.35,,5.7 ± 0.07,9 ± 0.51,,54 ± 1.4,,149 ± 7.01,,,,0.0859,times as active as doxorubicin (Caco-2; Caco-2 cells): 1.44 times
"COc1ccc2[nH]c(=O)c(/C=C3\SC(=O)N(CC(=O)Nc4ccccc4)C3=O)cc2c1 [Compound 7, (Z)-2–(5-((6-Methoxy-2-oxo-1,2-dihydroquinolin-3-yl)methylene)-2,4-dioxothiazolidin-3-yl)-N-phenylacetamide]",440 ± 14.1,4.71,93.5 ± 0.71,122 ± 7.01,3.59,159 ± 14,2.77,150 ± 7.07,2.93,-0.4960,2.138 Log (nM),,"Relative expression of Bcl-xl gene (Bcl-xl): down-regulating; Relative expression of TGF gene (TGF): upregulation; Relative expression of Bcl2 gene (Bcl2): down-regulating; Relative expression of Survivin gene (Survivin): down-regulating; diameter of the wound, treated cells (Figure 4A) (Caco-2 cells [3]; Caco-2, 90 µM, time not stated): 0.3058 mm; effect on wound healing (Caco-2 cells [3]; Caco-2, sub IC50 dose (90 µM)): prevent wound healing; cell cycle arrest (Caco-2 cells [4]): cellular arrest in sub G0 (Apoptotic phase); cell population in S phase (Caco-2 cells [4]; untreated 24.7%): 13.1%; cell population in G0/G1 phase (Caco-2 cells [4]; untreated 51.7%): 46.4%"
